Here are results for three compounds from patent publication US5668116A, “Anti-inflammatory compounds and compositions” (Anthropharm Pty. Limited, priority 1987, dated 1997).

For assay [1], the system named is articular cartilages implanted in rat air pouches. As to the kind of experiment: Rat air pouch model, loss of proteoglycans from implanted articular cartilage. Type of assay: in vivo. Conditions: 10 mg/kg/day into the air pouch for seven days, peptone inflammation; FIG. 12. The procedure:
This model was originally described by Sin, M. Y., et al J. Path. 141, 23 (1984) and Sedgwick A. D. et al Ann. Rheum. Dis. 43, 418 (1984) and provides a convenient and reproducable method of evaluating the effects of drugs on cartilage metabolism in vivo. This model was used to investigate the influence of SP54® and DH40J when administered into the rat air pouch at 10 mg/kg on the loss of cartilage proteoglycans (PGs) induced by an inflammatory cell invasion of the pouch.
Air pouches were created on the dorsal surface of male 200 gm Wistar rats by the initial injection of 20 ml of sterile air. Re-injection every second day maintained cavity inflation. Articular cartilage (AC) aseptically harvested from the knee joints of 10 week old New Zealand White rabbits, was implanted into formed 7 day old rat air pouches. Drugs (10 mg/kg), diluted in saline, were administered daily into the air pouch beginning the day of cartilage implantation. Saline was administered to a control group. Inflammation of the air pouch was achieved by the injection of 10 ml of sterile 3% peptone into the pouch every second day, beginning the day of cartilage implantation. […] Cells in the APF were stained with crystal violet and a total cell count determined. […] Implanted AC (8-10 mgs) was digested by papain and PG content was determined by hexuronic acid and sulphated glycosaminoglycan (GAG) analysis. […]

The conditions of assay [2]: in vitro; Arch. Int. Pharmacodyn. Ther. 282, 196-208 (1986); cited from earlier work.
The target of assay [3] is T1, human granulocyte elastase (HGE) (Homo sapiens, UniProt P08246).
T1 construct: HGE prepared according to the method of Andrews et al; from tissue
T1 sequence (P08246 30-247 limits assumed): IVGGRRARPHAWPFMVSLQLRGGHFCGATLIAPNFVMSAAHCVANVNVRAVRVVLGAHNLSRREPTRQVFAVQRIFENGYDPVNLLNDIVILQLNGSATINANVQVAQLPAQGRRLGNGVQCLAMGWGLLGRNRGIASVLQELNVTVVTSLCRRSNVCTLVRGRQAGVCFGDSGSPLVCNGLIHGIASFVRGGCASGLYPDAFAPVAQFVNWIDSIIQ
As to the kind of experiment: Inhibition of human granulocyte elastase (HGE), SAAVNA substrate. Type of assay: biochemical. The source says: (a) HGE prepared according to the method of Andrews et al (Chem. Biological Int. 47, 157, 1983) was used to degrade
the synthetic specific substrate for this enzyme-(succinyl-dialanyl-valyl nitroanalide (SAAVNA)).
In these experiments the inhibitory activity of DH40J, PPS as SP54® and mixtures of SP54® and ZnSO4 in various proportions against HGE using the same condition as in (a), except that a different enzyme preparation was used, were investigated. […] A variety of ratios of Zn^+ to SP54® were tested for their ability to inhibit the HGE.

Assay [4] deals with human synovial fibroblasts (line derived from OA joints). As to the kind of experiment: In vitro biosynthesis of hyaluronic acid by synovial fibroblasts. Type of assay: cell-based. Conditions: for in vitro biosynthesis of hyaluronic acid (HA): FIG. 1, 2, 17.
Assay [5] deals with mature rabbit articular cartilage. Conditions: 8 week intra-articular treatment.
Setting [6] is: Table 7, different enzyme preparation, single inhibitor.

Where “and” joins values, the source holds several entries; their conditions need not be identical. Identical values can stand only once.

In the case of “pentosan polysulphate sodium salt [SP54]”, in assay [1], the “loss of proteoglycans (uronic acid) from implanted articular cartilage” value is listed as “equally effective in preventing the loss of proteoglycans”. For the same compound, the “improving proteoglycan incorporation into the extracellular matrix” value in assay [2] is given as “active in vitro in improving proteoglycan incorporation into the extracellular matrix”. For the same compound, the “IC50 (HGE inhibition)” value in assay [3] (Table 6, 1 μg HGE/ml, 0.2 mM SAAVNA, pH 7.4, 37° C.) worked out at 0.249 µg/mL; in assay [3] (setting [6]), 0.381 µg/mL. Also, the “% DIFFERENCE from SP54 (IC50, HGE)” value in assay [3] (Table 7, single inhibitor) is on record as 0%. Also, the “in vitro biosynthesis of hyaluronic acid (HA)” value in assay [4] is on record as “stimulates the biosynthesis of hyaluronic acid (HA)”. In addition, the “restoration of HA biosynthesis suppressed by hydrocortisone” value in assay [4] (hydrocortisone at 10^6 M (so in the source), drug at 0.25 ug/ml, FIG. 19, 21) is “almost, but not totally, restored to control value”; in assay [4] (hydrocortisone at 10^8 M (so in the source), drug 0.1-1.0 ug/ml, FIG. 20), “fully restored synthesis to control values”. In addition, the “prevention of the effects of hydrocortisone on synovial fibroblast biosynthesis of HA” value in assay [4] (in vitro) is recorded as “could prevent the deleterious effects of hydrocortisone”.
As to `O=S(=O)([O-])[O-].[Zn+2]` [ZnSO4, zinc sulphate], the “IC50 (HGE inhibition)” value in assay [3] (setting [6]) stood at 10 µg/mL.
For the compound `C[C@]12CCC(=O)C=C1CC[C@@H]1[C@@H]2[C@@H](O)C[C@@]2(C)[C@H]1CC[C@]2(O)C(=O)CO` [Cortisone, hydrocortisone], in assay [5] (individual joints), the “4M Gu HCl,PG Extractability” value was 53.2% and 57.6% and 56.8% and 51.5%; the “35S-PG Specific (activity)” value is 896.8 DPM/ug UA and 866.6 DPM/ug UA and 1061.4 DPM/ug UA and 854.2 DPM/ug UA. Further, the “Hexuronic Acid(UA)” value in assay [5] (individual joints, hydrocortisone 50 mg, pentosan polysulphate 5 mg) is 27.4 ug/mg dry wt. and 23.2 ug/mg dry wt. and 20.0 ug/mg dry wt. and 21.8 ug/mg dry wt. In assay [5] (n = 4 joints), the “4M Gu HCl,PG Extractability Mean ± SD” value is 54.7 ± 2.9%, the “35S-PG Specific (activity) Mean ± SD” value is given as 919.7 ± 96.1 DPM/ug UA and the “Hexuronic Acid(UA) Mean ± SD” value is reported as 23.1 ± 3.1 ug/mg dry wt. Also, the “in vitro biosynthesis of hyaluronic acid (HA)” value in assay [4] is “progressively inhibited”.
